Source: patent publication US10857236B2, “Sustained release nanocomposite, a process for producing the same and use thereof” (SZEGEDI TUDOMÁNYEGYETEM, priority 2015, dated 2020)

Assays:
[1] = KYNA permeability in in vitro blood-brain barrier model; type: in vitro ADME, rat; conditions: Wistar, rat, 20 μM KYNA final concentration, corrected for empty filters, read-out: permeability coefficient Pe
Protocol: The permeability of KYNA through the blood-brain barrier from BSA/KYNA/PAH nanocapsules was determined by means of an in vitro blood-brain barrier model. The description of the model is the following: microvessel rat brain endothelial cells were isolated from 2 to 3 weeks old Wistar animals by means of a method described earlier (Wilhelm és munkatársai, 2011). After the removal of the meninges, the brain tissue was dissectioned to small pieces, then it was digested by type 2 collagenase and collagenase/dispase, finally it was centrifuged on percoll gradient. The microvessel fragments were plated on collagenIV/fibronectin-coated Petri dishes and were cultured in DMEM/F12 in the presence of plasma serum and growth factors. […]
From these samples the concentration of KYNA was determined using an Agilent 1100 HPLC-MS system (Agilent Technologies, Santa Clara, Calif., USA).
To calculate the permeability coefficient the following formulae were applied: PappdQ/(dT×A×C0), wherein dQ stands for the crossed amount of the material, dT stands for the incubation period of time (1 hour), A stands for the surface of the filter and C0 stands for the starting concentration (20 μM). The values thus calculated were compared to the values measured on empty (not containing cells) filters according to the following method: […]).

[2] = in vitro drug release in Franz cell (vertical diffusion cell), kinetic models; type: physicochemical
Protocol: FIG. 7: A schematic figure of the Franz-cell (vertical diffusion cell) with which the in vitro drug release experiments were carried out. […] The active ingredient release tests were made at two temperatures: at 25 and 37.5° C. (FIGS. 7 and 8).

[3] = stability study of KYNA in MQ with and without 150 mM NaCl and in buffer; conditions: for demonstrated stability until: PBS buffer at pH=7.4 (physiological solution)
Protocol: New types of nanocomposites have been prepared within physiological conditions, in the nano-size range for the purpose of crossing the pharmaceutically active ingredients through the blood-brain barrier. […] The amount of the material constituting the composites, than the conditions of the preparation were determined. Stability studies were performed for the active ingredients by ensuring various conditions (pH=3 to 8 in physiological solution and without said physiological solution, in both phosphate and HEPES buffers). […]
The release tests were made in case of KYNA in PBS buffer at pH=7.4. (physiological solution). […]

[4] = system: somatosensory evoked potentials (SEPs); assay: in vivo amplitudes of somatosensory evoked potentials after peripheral administration; set-up: species or system male Wistar rats; conditions: intraperitoneal administration, 300 mg/kg, n=5
Excerpt: The preparation of the corresponding composite (FIG. 1) was accomplished with the following parameters. […] At a neutral pH the compact structure of the protein offers an opportunity to enclose large amount of kynurenic acid. In the “heart shaped” conformation of the BSA, the hydrophobic parts directed inside the conformation can form hydrogen-bridge, hydrophobic, furthermore ππ interactions with the KYNA molecule. […] After the in vitro drug release experiments the KYNA permeability was investigated with the help of an in vitro blood-brain barrier model. […] The animal experiments were performed on male Wistar rats (300 g, n=30). During the tests the effect of the peripherally administered KYNA was investigated in the central nervous system.

[5] = DOPA containing composites, 25° C.
[6] = DOPA containing composites, 37.5° C.
[7] = KYNA containing composites, 25° C.
[8] = KYNA containing composites, 37.5° C.

Question: Which Papp at 1 h, 20 µM [1] does the source give for `O=C(O)c1cc(=O)c2ccccc2[nH]1` [KYNA, kynurenic acid] here?
Answer: 3.71 ×10⁻⁶ cm/s

Question: What about the “Release rate, depending on the concentration, first-order kd” value (“Release rate, depending” below) [2, 5] of the same compound?
Answer: 0.0079 s⁻¹

Question: What about the “Release rate, diffusion controlled, Higuchi kd” value (“Release rate … Higuchi kd” for short) [2, 5] of the same compound?
Answer: 6.9 * 10^−0 s^−1/2

Question: And the “Release rate, not depending on the concentration, zero-order kd” value (from here on “Release rate, not depending”) [2, 5]?
Answer: 0.63 s⁻¹

Question: And the “Release rate, depending” value [2, 6]?
Answer: 0.0098 s⁻¹

Question: What about the “Release rate … Higuchi kd” value [2, 6] of the same compound?
Answer: 7.0 * 10^−0 s^−1/2

Question: What about the “Release rate, not depending” value [2, 6] of the same compound?
Answer: 0.0062 s⁻¹

Question: And the “Release rate, depending” value [2, 7]?
Answer: 0.0015 s⁻¹

Question: What about the “Release rate … Higuchi kd” value [2, 7] of the same compound?
Answer: 4.9 * 10^−3 s^−1/2

Question: And the “Release rate, not depending” value [2, 7]?
Answer: 0.0004 s⁻¹

Question: And the “Release rate … Higuchi kd” value [2, 8]?
Answer: 1.2 * 10^−2 s^−1/2

Question: What about the “Release rate, not depending” value [2, 8] of the same compound?
Answer: 0.001 s⁻¹

Question: What about the “kinetic model that characterizes / best fits the release” value ([2]; in vitro release profiles) of the same compound?
Answer: Higuchi model

Question: What about the “stability of KYNA” value ([3]; HEPES (150 mM NaCl), 0 h) of the same compound?
Answer: stable

Question: And the “stability of KYNA” value ([3]; HEPES (150 mM NaCl), 24 h)?
Answer: unstable

Question: What about the “stability of KYNA” value ([3]; HEPES (150 mM NaCl), 48 h) of the same compound?
Answer: unstable

Question: And the “stability of KYNA” value ([3]; HEPES (150 mM NaCl), 72 h)?
Answer: unstable

Question: And the “stability of KYNA” value ([3]; HEPES (150 mM NaCl), 96 h)?
Answer: unstable

Question: What about the demonstrated stability until ([3]; release tests of IBU) of the same compound?
Answer: 96 h

Question: And the demonstrated stability until ([3]; release tests of KYNA)?
Answer: 72 h

Question: And the “degrading of KYNA as a result of the buffers” value ([3]; in buffer)?
Answer: already starts in the first hours

Question: And the “stability of KYNA” value ([3]; pH 3 (MQ + 150 mM NaCl), 0 h)?
Answer: stable

Question: What about the “stability of KYNA” value ([3]; pH 3 (MQ + 150 mM NaCl), 24 h) of the same compound?
Answer: stable

Question: What about the “stability of KYNA” value ([3]; pH 3 (MQ + 150 mM NaCl), 48 h) of the same compound?
Answer: stable

Question: And the “stability of KYNA” value ([3]; pH 3 (MQ + 150 mM NaCl), 72 h)?
Answer: stable

Question: What about the “stability of KYNA” value ([3]; pH 3 (MQ + 150 mM NaCl), 96 h) of the same compound?
Answer: unstable

Question: What about the “stability of KYNA” value ([3]; pH 3 (MQ), 0 h) of the same compound?
Answer: stable

Question: What about the “stability of KYNA” value ([3]; pH 3 (MQ), 24 h) of the same compound?
Answer: stable

Question: And the “stability of KYNA” value ([3]; pH 3 (MQ), 48 h)?
Answer: stable

Question: And the “stability of KYNA” value ([3]; pH 3 (MQ), 72 h)?
Answer: stable

Question: And the “stability of KYNA” value ([3]; pH 3 (MQ), 96 h)?
Answer: unstable

Question: What about the “stability of KYNA” value ([3]; pH 4 (MQ + 150 mM NaCl), 0 h) of the same compound?
Answer: stable

Question: And the “stability of KYNA” value ([3]; pH 4 (MQ + 150 mM NaCl), 24 h)?
Answer: stable

Question: And the “stability of KYNA” value ([3]; pH 4 (MQ + 150 mM NaCl), 48 h)?
Answer: stable

Question: And the “stability of KYNA” value ([3]; pH 4 (MQ + 150 mM NaCl), 72 h)?
Answer: stable

Question: What about the “stability of KYNA” value ([3]; pH 4 (MQ + 150 mM NaCl), 96 h) of the same compound?
Answer: unstable

Question: What about the “stability of KYNA” value ([3]; pH 4 (MQ), 0 h) of the same compound?
Answer: stable

Question: And the “stability of KYNA” value ([3]; pH 4 (MQ), 24 h)?
Answer: stable

Question: And the “stability of KYNA” value ([3]; pH 4 (MQ), 48 h)?
Answer: stable

Question: What about the “stability of KYNA” value ([3]; pH 4 (MQ), 72 h) of the same compound?
Answer: unstable

Question: And the “stability of KYNA” value ([3]; pH 4 (MQ), 96 h)?
Answer: unstable

Question: And the “stability of KYNA” value ([3]; pH 5 (MQ + 150 mM NaCl), 0 h)?
Answer: stable

Question: What about the “stability of KYNA” value ([3]; pH 5 (MQ + 150 mM NaCl), 24 h) of the same compound?
Answer: stable

Question: What about the “stability of KYNA” value ([3]; pH 5 (MQ + 150 mM NaCl), 48 h) of the same compound?
Answer: unstable

Question: What about the “stability of KYNA” value ([3]; pH 5 (MQ + 150 mM NaCl), 72 h) of the same compound?
Answer: unstable

Question: And the “stability of KYNA” value ([3]; pH 5 (MQ + 150 mM NaCl), 96 h)?
Answer: unstable

Question: And the “stability of KYNA” value ([3]; pH 5 (MQ), 0 h)?
Answer: stable

Question: What about the “stability of KYNA” value ([3]; pH 5 (MQ), 24 h) of the same compound?
Answer: stable

Question: What about the “stability of KYNA” value ([3]; pH 5 (MQ), 48 h) of the same compound?
Answer: stable

Question: And the “stability of KYNA” value ([3]; pH 5 (MQ), 72 h)?
Answer: stable

Question: And the “stability of KYNA” value ([3]; pH 5 (MQ), 96 h)?
Answer: unstable

Question: What about the “stability of KYNA” value ([3]; pH 6 (MQ + 150 mM NaCl), 0 h) of the same compound?
Answer: stable

Question: What about the “stability of KYNA” value ([3]; pH 6 (MQ + 150 mM NaCl), 24 h) of the same compound?
Answer: stable

Question: What about the “stability of KYNA” value ([3]; pH 6 (MQ + 150 mM NaCl), 48 h) of the same compound?
Answer: stable

Question: And the “stability of KYNA” value ([3]; pH 6 (MQ + 150 mM NaCl), 72 h)?
Answer: stable

Question: And the “stability of KYNA” value ([3]; pH 6 (MQ + 150 mM NaCl), 96 h)?
Answer: unstable

Question: What about the “stability of KYNA” value ([3]; pH 6 (MQ), 0 h) of the same compound?
Answer: stable

Question: What about the “stability of KYNA” value ([3]; pH 6 (MQ), 24 h) of the same compound?
Answer: stable

Question: And the “stability of KYNA” value ([3]; pH 6 (MQ), 48 h)?
Answer: stable

Question: And the “stability of KYNA” value ([3]; pH 6 (MQ), 72 h)?
Answer: unstable

Question: And the “stability of KYNA” value ([3]; pH 6 (MQ), 96 h)?
Answer: unstable

Question: What about the “stability of KYNA” value ([3]; pH 7 (MQ + 150 mM NaCl), 0 h) of the same compound?
Answer: stable

Question: And the “stability of KYNA” value ([3]; pH 7 (MQ + 150 mM NaCl), 24 h)?
Answer: stable

Question: And the “stability of KYNA” value ([3]; pH 7 (MQ + 150 mM NaCl), 48 h)?
Answer: stable

Question: And the “stability of KYNA” value ([3]; pH 7 (MQ + 150 mM NaCl), 72 h)?
Answer: stable

Question: What about the “stability of KYNA” value ([3]; pH 7 (MQ + 150 mM NaCl), 96 h) of the same compound?
Answer: unstable

Question: And the “stability of KYNA” value ([3]; pH 7 (MQ), 0 h)?
Answer: stable

Question: And the “stability of KYNA” value ([3]; pH 7 (MQ), 24 h)?
Answer: stable

Question: And the “stability of KYNA” value ([3]; pH 7 (MQ), 48 h)?
Answer: stable

Question: What about the “stability of KYNA” value ([3]; pH 7 (MQ), 72 h) of the same compound?
Answer: unstable

Question: What about the “stability of KYNA” value ([3]; pH 7 (MQ), 96 h) of the same compound?
Answer: unstable

Question: And the “stability of KYNA” value ([3]; pH 8 (MQ + 150 mM NaCl), 0 h)?
Answer: stable

Question: And the “stability of KYNA” value ([3]; pH 8 (MQ + 150 mM NaCl), 24 h)?
Answer: stable

Question: And the “stability of KYNA” value ([3]; pH 8 (MQ + 150 mM NaCl), 48 h)?
Answer: stable

Question: What about the “stability of KYNA” value ([3]; pH 8 (MQ + 150 mM NaCl), 72 h) of the same compound?
Answer: stable

Question: And the “stability of KYNA” value ([3]; pH 8 (MQ + 150 mM NaCl), 96 h)?
Answer: unstable

Question: What about the “stability of KYNA” value ([3]; pH 8 (MQ), 0 h) of the same compound?
Answer: stable

Question: What about the “stability of KYNA” value ([3]; pH 8 (MQ), 24 h) of the same compound?
Answer: stable

Question: And the “stability of KYNA” value ([3]; pH 8 (MQ), 48 h)?
Answer: stable

Question: And the “stability of KYNA” value ([3]; pH 8 (MQ), 72 h)?
Answer: stable

Question: And the “stability of KYNA” value ([3]; pH 8 (MQ), 96 h)?
Answer: unstable

Question: And the “change of amplitude of somatosensory evoked potentials” value [4]?
Answer: no significant change
